Data from patent US20040057926A1, “Modulation of the immune response through the manipulation of arginine levels” (LSU Medical Center, priority 2002, published 2004).

Legend:
[1] = test system: peritoneal macrophages (PM); assay: Extra-cellular L-Arg concentration in supernatants of peritoneal macrophages (HPLC); type: cell-based, mice; conditions: for extra-cellular L-Arg levels (mean of three experiments): L-Arg 2 mM, NOHA 100 μM, Nor-NOHA 50 μM; for rapid decrease in the extra-cellular levels of L-Arg: PM stimulated with IL-4+IL-13
Description: Jurkat T-cells, a CD4^+ cell line (Clone E6-1) (ATCC, Manassas, Va.) and normal stimulated T-cells were used to test the effect of ASE I, ASE II and iNOS produced by PM on CD3ζ expression. Six-week old female C57BL/6 mice were used to isolate peritoneal macrophages (PM). Briefly, 3 ml of thioglycolate-brewer (Becton Dickinson, San Jose, Calif.) were injected into the peritoneal cavity of mice for 3 days. Mice were then sacrificed and PM isolated by washing the peritoneum with HBSS. After 2 days of culture in RPMI with 4% fetal bovine serum, unattached cells were washed off and attached cells were used in co-cultures with Jurkat or normal T-cells.
(§1) PM were cultured in 6 well plates in RPMI containing 150 μM L-Arg and stimulated with murine rIL-4 (50 U/ml) and murine rIL-13 (50 ng/ml), or murine rIFN-γ (100 U/ml) for 24 hours. Then 1×10^6 normal T-cells stimulated with anti-CD3 plus anti-CD28 or 1×10^6 Jurkat cells, were cultured in the top chamber of a transwell system having 0.4 μm pores (Falcon, Franklin lakes, N.J.). CD3ζ expression was measured in Jurkat cells or T lymphocytes at different time points. PM were detached using trypsin/EDTA and the expression of protein and RNA for CAT-2B, ASE I, ASE II and iNOS was tested by western blot and northern blot respectively. Cytoplasmic extracts from PM were used to test ASE activity. Supernatants from stimulated PM were used to measure NO production using the Griess reagent method (Molecular Probes, Eugene, Oreg.). In addition, the extra-cellular concentration of L-Arg was tested in supernatants by HPLC (Dr. Gu Yao Wu laboratory, University of Texas) as described previously. O'Quinn, P. R., D. A. Knabe, and G. Wu. 2002. Arginine catabolism in lactating porcine mammary tissue. J Anim Sci. 80:467-474.

Jurkat cells [2] = assay: Co-culture in transwells of stimulated PM and Jurkat cells, CD3ζ expression; type: cell-based; conditions: for CD3ζ in Jurkat cells co-cultured with PM stimulated with IL-4+IL-13: NOHA 100 μM, Nor-NOHA 50 μM, L-Arg 2 mM, L-NIL 5 μg/ml, catalase 200 U/ml, L-NMMA, L-NNA, L-NAME 1 mM
Description: as §1
Flow cytometry analysis was performed as previously described. Taheri, F., J. B. Ochoa, Z. Faghiri, K. Culotta, H. J. Park, M. S. Lan, A. H. Zea, and A. C. Ochoa. 2001. L-Arginine regulates the expression of the T-cell receptor zeta chain (CD3zeta) in Jurkat cells. Clin Cancer Res 7:958s-965s. Briefly, 5×10^5 Jurkat cells or T lymphocytes were washed once with Dulbecco phosphate-buffered saline 1× (D-PBS) and resuspended in 200 μL of D-PBS containing 1 μg of anti-CD3ε or isotype control. Cells were incubated for 15 min at 4° C., washed with D-PBS and resuspended in 200 μl D-PBS containing 500 μg/ml of digitonin plus 1 μg of anti-CD3ζ or 1 μg of isotypic control. Cells were incubated for 8 minutes after which they were washed and resuspended in 400 μl of D-PBS. Fluorescence acquisition and analysis were done using a Coulter-EPICS XL flow cytometer (Beckman-Coulter) with a 488 nm argon laser. The data were expressed as mean channel fluorescence intensity (MFI).

ASE I = assay: Western blot for ASE I in PM cytoplasmic extracts; type: cell-based, mice; conditions: NOHA 100 μM, Nor-NOHA 50 μM
Description: Cytoplasmic extracts from PM, Jurkat cells or T lymphocytes were prepared as previously reported. Taheri, F., J. B. Ochoa, Z. Faghiri, K. Culotta, H. J. Park, M. S. Lan, A. H. Zea, and A. C. Ochoa. 2001. L-Arginine regulates the expression of the T-cell receptor zeta chain (CD3zeta) in Jurkat cells. Clin Cancer Res 7:958s-965s. Briefly, cells were resuspended in lysis buffer (50 mM HEPES, 150 mM NaCl, 5 mM EDTA, 1 mM NaOV4 and 0.5% Triton) containing 50 μg/ml of aprotinin, 50 μg/ml of leupeptin, 100 μg/ml of trypsin-chymotrypsin inhibitor and 2 mM PMSF. Lysates were centrifuged at 3000×g for 10 min at 4° C. Cytoplasmic extracts from Jurkat or T-cells were immunoblotted for CD3ζ and CD3ε. The expression ASE I, ASE II and iNOS was detected by immunoblot using PM extracts. GAPDH was used as housekeeping protein. Cytoplasmic extracts were electrophoresed in 12 or 8% Tris-Glycine gels (Novex, San Diego, Calif.), transferred to PVDF membranes and immunoblotted with the appropriate antibodies. The reactions were detected using the ECL kit (Amersham-Pharmacia).

Jurkat cells [3] = assay: Proliferation of Jurkat cells with H. pylori sonicate (3H-thymidine); type: cell-based; conditions: NOHA 10 μg/ml, L-arginine 2 mM; sonicate 50 μg/ml
Description: Unless otherwise stated, the cells were always cultured in RPMI 1640 (Gibco Life-Technologies; Rockville, Md.) which contains 1104 μM L-arginine, 2.5 mM of L-glutamine, (Gibco), 25 mM HEPES (Gibco), 100 μg/ml of penicillin/streptomycin (Gibco), and 10% heat inactivated FCS (Hyclone). Jurkat cells were maintained at 0.5×10^6/ml. For proliferation assays Jurkat cells or peripheral blood mononuclear cells (PBMC) were placed at 2×10^5/well in round-bottom 96-well plates (Corning; Corning, N.Y.) and incubated for 2 h with increasing concentrations of the H. pylori sonicate ranging from 0.01 μg/ml to 100 μg/ml. After this, 30 ng/ml of anti-CD3 (Ortho Diagnostics, Raritan, N.J.) and 100 ng/ml of anti-CD28 (Becton-Dickinson Biosciences; Palo Alto, Calif.) were added to the PBMC. Jurkat cells were incubated for an additional 24 h and the PBMC for 48 h. […] The cells were collected onto glass fiber filters (Unifilter GF/B; Packard Bioscience; Meriden, Conn.) and radioactivity was counted in a Beta counter (Microplate Scintillation and Luminiscence Counter, TopCount, Packard).
[…] After addition of the sonicate plus NOHA or sonicate plus L-arginine mixture to the Jurkat cells, 1.0 μCi of ^3H-thymidine (NEN) was added per well, the cells were incubated at 37° C. for 18 h, harvested onto filters and counted in a β-counter (Packard).

H. pylori arginase = conditions: McGee, manuscript in preparation; cited from earlier work
CAT-3 = CAT-3 (Homo sapiens, UniProt Q8WY07); conditions: read-out: Km for L-Arg; cited from earlier work
CAT-2B = CAT-2B (Homo sapiens, UniProt P52569); conditions: read-out: Km for L-Arg; cited from earlier work
[4] = PM stimulated with IL-4 + IL-13

CAT-3, sequence (Q8WY07 whole entry, species assumed): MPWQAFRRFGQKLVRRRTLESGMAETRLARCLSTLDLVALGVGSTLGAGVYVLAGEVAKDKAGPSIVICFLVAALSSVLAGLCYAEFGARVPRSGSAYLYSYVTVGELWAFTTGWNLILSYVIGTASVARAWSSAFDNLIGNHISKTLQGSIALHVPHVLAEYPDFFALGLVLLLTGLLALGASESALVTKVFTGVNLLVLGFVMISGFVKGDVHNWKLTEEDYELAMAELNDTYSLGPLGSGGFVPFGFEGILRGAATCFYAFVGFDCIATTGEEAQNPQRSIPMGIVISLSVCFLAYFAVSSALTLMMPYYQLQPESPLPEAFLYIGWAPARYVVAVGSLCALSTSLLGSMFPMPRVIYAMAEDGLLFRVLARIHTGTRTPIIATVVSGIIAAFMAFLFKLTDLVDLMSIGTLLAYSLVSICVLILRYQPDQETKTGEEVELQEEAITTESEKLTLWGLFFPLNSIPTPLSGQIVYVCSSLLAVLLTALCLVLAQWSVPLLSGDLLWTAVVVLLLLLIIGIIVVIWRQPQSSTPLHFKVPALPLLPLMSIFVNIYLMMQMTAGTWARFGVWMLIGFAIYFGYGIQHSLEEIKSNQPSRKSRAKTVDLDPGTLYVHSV
CAT-2B, sequence (P52569 whole entry, species assumed): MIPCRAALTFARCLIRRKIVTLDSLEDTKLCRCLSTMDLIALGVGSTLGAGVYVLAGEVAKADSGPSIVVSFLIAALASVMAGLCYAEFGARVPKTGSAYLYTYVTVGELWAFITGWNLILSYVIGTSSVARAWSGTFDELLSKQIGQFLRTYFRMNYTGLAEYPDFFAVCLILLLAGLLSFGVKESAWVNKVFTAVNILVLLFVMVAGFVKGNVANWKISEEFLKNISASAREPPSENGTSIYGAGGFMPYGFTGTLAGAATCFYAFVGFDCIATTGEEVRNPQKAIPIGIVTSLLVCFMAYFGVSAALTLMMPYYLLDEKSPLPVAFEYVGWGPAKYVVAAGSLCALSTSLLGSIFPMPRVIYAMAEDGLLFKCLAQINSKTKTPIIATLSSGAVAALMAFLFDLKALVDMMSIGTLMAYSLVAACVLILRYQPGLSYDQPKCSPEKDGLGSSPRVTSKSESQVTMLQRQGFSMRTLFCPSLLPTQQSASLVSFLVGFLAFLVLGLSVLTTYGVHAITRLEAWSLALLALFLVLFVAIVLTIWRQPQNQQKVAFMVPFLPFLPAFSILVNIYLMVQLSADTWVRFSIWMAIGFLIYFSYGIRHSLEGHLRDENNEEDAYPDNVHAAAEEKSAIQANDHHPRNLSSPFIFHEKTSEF

| Compound | extra-cellular L-Arg levels (mean of three experiments) ([1]; Non-stimulated PM) [µM] | extra-cellular L-Arg levels (mean of three experiments) [1, 4] [µM] | rapid decrease in the extra-cellular levels of L-Arg [1] | CD3ζ in Jurkat cells co-cultured with PM stimulated with IL-4+IL-13 (Jurkat cells [2]) | ASE I up regulation after IL-4+IL-13 stimulation (ASE I) | Jurkat cell proliferation in the presence of H. pylori sonicate (Jurkat cells [3]) | inhibition of H. pylori arginase (H. pylori arginase) | re-expression of CD3ζ on addition after 24 hours of co-culture (Jurkat cells [2]; 2 mM added, CD3ζ tested 24 hours later) | Km (CAT-3) [µM] | Km (CAT-2B) [µM] |
| --- | --- | --- | --- | --- | --- | --- | --- | --- | --- | --- |
| NC(=NCCC[C@H](N)C(=O)O)NO [NOHA, NG-hydroxy-L-arginine] | 101.6 | 75.6 | partially blocked the rapid decrease | prevented the decrease of CD3ζ | did not prevent ASE I up regulation | prevented the decrease in Jurkat cell proliferation | only partially inhibit H. pylori arginase | – | – | – |
| N=C(N)NCCC[C@H](N)C(=O)O [L-arginine] | 1267 | 59.8 | partially blocked the rapid decrease | prevented the decrease of CD3ζ | – | prevented a decrease in cell proliferation | – | induced the re-expression of CD3ζ | 100 | 100 |
